Test results taken from article PMC9154752, “MHC class II molecules on pancreatic cancer cells indicate a potential for neo-antigen-based immunotherapy” (Oncoimmunology, 2022).
Several values for one entry are separate records, joined by “and”; a condition that tells them apart may be missing. Equal values may be shown once. Read-outs that look alike come from different tables or passages of the source. Residues, ends and D or L forms follow the SMILES beside them. No end group written: not given here.

What was measured:
CD4+ T-cells = assay: Immunogenicity T-cell assay (intracellular IFN-γ in peptide-stimulated CD4+ T-cells); type: cell-based, human; settings: for Immunogenicity, % of responses: percentage of the 9 donors responding; for Immunogenicity, No of responses: responding donors of 9 HLA-DP4-positive donors, 3 weekly stimulations with mDC pulsed at 10 μg/mL, challenge with peptide-pulsed T2-DP4, intracellular IFN-γ by FACS
Description: Immunogenicity of candidate HLA-DP4 neo-epitopes was performed using HLA-matched healthy donors’ autologous PBMCs. Briefly, mature DCs were pulsed with individual neo-epitopes at 10 μg/mL and co-cultured with autologous magnetic-sorted CD4+ T-cells (CD4 Microbeads Human, MACS Miltenyi; #130-045-101) in RPMI with 5% AB human serum (#H4522-100ML; Sigma-Aldrich), 10 units/mL penicillin–streptomycin, 2 mmol/L L-glutamine, 1% nonessential amino acid, IL-6 (#570802; BioLegend) (1000 U/mL) and IL-12 (#573002; BioLegend) (5 ng/mL). IL-2 (#589106; BioLegend) (30 U/mL) and IL-7 (#581902; BioLegend) (5 ng/mL) was added every 2 days. CD4+ T-cells underwent another two rounds of stimulation with peptide-pulsed mature DCs on day 7 and 14. Seven days after the third stimulation, CD4+ T-cells were challenged by overnight incubation with peptide-loaded T2-DP4 cells. As a control, CD4+ T-cells were incubated with T2-DP4 without peptide. Reactivity of the T cells was determined by intracellular IFN-γ (#502515; BioLegend) staining measured by flow cytometry. When Capan-1-derived neo-epitopes were tested, the peptide-stimulated CD4+ T-cells were challenged by overnight incubation with Capan-1 (MHC-II-negative), IFN-γ-treated Capan-1 cells (MHC-II-positive). Supernatants were collected and assessed for LDH (cytotoxicity), IFN-γ, granzyme B and granulysin. Where indicated, purified endotoxin-free anti-MHC class II (clone TÜ39; #555556; BD Bioscience, Chicago, IL, USA) antibodies were added to the co-cultures at 10 μg/mL.
(§1) For cell surface labeling, cell suspensions were incubated with antibodies for 30 min at room temperature. For intracellular staining, cells were fixed and permeabilized using a Leucoperm kit (Bio-Rad; #BUF09C) in accordance with the manufacturer’s guidelines. Prior to intracellular staining with anti-IFN-γ, cells were incubated overnight in the presence of 5 microgram per mL brefeldin A (Sigma-Aldrich; #B6542-5 MG). Cell viability was analyzed by Ethidium homodimer 1 and calcein-AM double-staining using LIVE/DEAD® Viability/Cytotoxicity Kit, for mammalian cells according to the manufacturer’s instructions (#L3224; Invitrogen). Flow cytometry was done using a FACSCalibur (Becton Dickinson, Heidelberg, Germany) or BD LSRII (Becton Dickinson) flow cytometer. The data were processed with the CellQuest software (Becton Dickinson, Heidelberg, Germany) and analyzed with the WinMDi 2.9 (Purdue University, USA).

PDAC cell lines = assay: MHC-II surface expression on PDAC cell lines by flow cytometry; type: cell-based, human; settings: 48 h; for MHC-II expression, agent alone / MHC-II expression, treatment together with IFN-γ: 8988 T, FA6 and MiaPaca-2 cells; for MHC-II expression, treatment together with IFN-γ: IFN-γ 50 ng/mL
Description: All PDAC cell lines were stimulated with 50 ng/mL of the human recombinant IFN-γ (#570206; BioLegend) in T75 culture flasks for 48 h. As negative control, we co-incubated the cell lines in the medium alone. Where inhibitors were used, trametinib (#S2673; Selleckchem) or trichostatin A (TSA) (#T8552-1 MG; Sigma-Aldrich) at the indicated concentrations were added into the cultures with or without IFN-γ. After incubation, the cells were removed from the flasks by treatment with trypsin, cell suspensions were prepared and cells were stained with purified mouse IgG antibodies to CLIP (clone CerCLIP.1; #ab22606; Abcam, Cambridge, UK), and HLA-DR, DP, DQ (clone Tü39; #555556; BD) or isotype control (mouse IgG2a; #554645; BD) followed by Alexa Fluor 488-conjugated anti-mouse IgG, and APC-conjugated anti-PD-L1 (clone 29E.2A3; #329708; BioLegend) and processed for flow cytometry analysis.
as §1

MiaPaca-2 cells = assay: CD4+ T-cell recognition of MiaPaca-2 cells (granzyme B ELISA); type: cell-based, human; settings: MHC-II induced by IFN-γ in conjunction with trametinib; overnight, T-cell:tumor 5:1, granzyme B ELISA, 4 donors
Description: Figure 8. Trametinib and TSA enhance responsiveness to IFN-γ in PDAC cells. (A) 8988 T, FA6 and MiaPaca-2 cells were treated with IFN-γ or left untreated, in the presence or absence of the MEK inhibitor, trametinib and/or histone deacetylase inhibitor TSA at the indicated concentrations for 48 hours. The cells were then collected, stained with anti-MHC-II antibodies and analyzed by flow cytometry. All flow cytometry data were gated on viable, singlets and MFI values for MHC-II were normalized to the untreated cells (none). Data are from three independent experiments. (B) Allogenic activated CD4+ T-cells from 4 healthy donors were incubated overnight with MiaPaca-2 cells (T-cell:tumor ratio 5:1). Where indicated, the cultures were treated with blocking antibodies or isotype control (IgG). […] All data were analyzed by one-way ANOVA; * P < 0.05; ** p < 0.01; *** p < 0.001; **** p < 0.0001. […]
The cytokine IFN-γ and the cytolytic molecules granulysin and granzyme B were detected in supernatants of T-cell/tumor cell co-cultures using commercial ELISA kits (Human IFN gamma ELISA Ready-SET-Go!®, #88-7316-76, Affymetrix eBioscience; Human Granulysin DuoSet ELISA, #DY3138; and Human Granzyme B DuoSet ELISA, #DY2906-05, R&D Systems) in 96-well microtiter plates (Nunc Maxisorp, Rochester, NY, USA) following the manufacturer’s instructions.

HLA-DP4 = target: T1, HLA-DP4 (Homo sapiens, UniProt P04440+P20036); assay: Cell-based competitive MHC-II binding assay with T2-DP4 cells
T1 construct: expressed in transfected cells; host or cells: T2 lymphoblastoid cell line transfected with HLA-DP4 (T2-DP4), gift of Prof; Naoto Hirano, University of Toronto
T1 sequence (P04440 30-258): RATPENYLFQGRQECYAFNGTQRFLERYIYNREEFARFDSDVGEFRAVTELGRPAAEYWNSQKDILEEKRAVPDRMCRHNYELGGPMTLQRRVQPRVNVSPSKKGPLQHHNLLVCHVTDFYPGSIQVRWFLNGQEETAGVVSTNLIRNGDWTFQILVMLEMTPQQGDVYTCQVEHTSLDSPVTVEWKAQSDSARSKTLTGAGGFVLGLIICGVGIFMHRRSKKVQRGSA
T1 sequence (P20036 29-260): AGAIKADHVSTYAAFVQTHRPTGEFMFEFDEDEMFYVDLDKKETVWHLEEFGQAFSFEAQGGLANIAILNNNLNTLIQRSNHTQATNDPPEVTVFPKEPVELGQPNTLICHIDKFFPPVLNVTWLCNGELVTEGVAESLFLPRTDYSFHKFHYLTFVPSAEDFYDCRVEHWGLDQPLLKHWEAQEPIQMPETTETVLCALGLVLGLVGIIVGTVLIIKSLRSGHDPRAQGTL

[1] = T2-DP4 cells, overnight 37°C, competitor from 80 µM in 8 serial dilution steps, 500 nM FITC-labeled Oxy271-287, flow cytometry, n = 3 per peptide, read-out: IC50 (µM) Binding Assay

CSCC[C@H](NC(=O)[C@H](CCC(N)=O)NC(=O)[C@@H]1CCCN1C(=O)[C@@H](NC(=O)[C@H](CC(=O)O)NC(=O)[C@@H](N)CS)C(C)C)C(=O)N[C@@H](CC(C)C)C(=O)N[C@@H](CCCCN)C(=O)N[C@@H](CC(C)C)C(=O)N[C@@H](C)C(=O)N[C@@H](CS)C(=O)N[C@@H](Cc1ccc(O)cc1)C(=O)N[C@@H](Cc1ccc(O)cc1)C(=O)N[C@@H](CCC(=O)O)C(=O)N[C@@H](Cc1ccccc1)C(=O)O [Peptide 94] (H-CDVPQMLKLACYYEF-OH; N-terminus and C-terminus assumed)
Immunogenicity, % of responses (CD4+ T-cells): 0% | Immunogenicity, No of responses (CD4+ T-cells): 0 of 9

CC(/C=C/C(=O)NO)=C\[C@@H](C)C(=O)c1ccc(N(C)C)cc1 [TSA, trichostatin A]
MHC-II expression, agent alone (PDAC cell lines): did not induce expression of MHC-II | MHC-II expression, treatment together with IFN-γ (PDAC cell lines): enhanced MHC-II expression in FA6 cells, but not in 8988 T and MiaPaca-2 cells

CC(=O)Nc1cccc(-n2c(=O)n(C3CC3)c(=O)c3c(Nc4ccc(I)cc4F)n(C)c(=O)c(C)c32)c1 [trametinib]
Susceptibility of MiaPaca-2 cells to CD4+ T-cell recognition (MiaPaca-2 cells): rendered these cells susceptible to CD4+ T-cells recognition | MHC-II expression, agent alone (PDAC cell lines): induced a slight increase in the expression of MHC-II | MHC-II expression, treatment together with IFN-γ (PDAC cell lines): increased MHC-II expression compared with IFN-γ alone

ALLKFWEDEGFVREE [Peptide 101]
Immunogenicity, % of responses (CD4+ T-cells): 44% | Immunogenicity, No of responses (CD4+ T-cells): 4 of 9

FESEKYQDILMWNYR [Peptide 73]
IC50 (HLA-DP4; [1]): 15.9 µM

FNNFTVSFWLRVPKVSASHLE [TT 947-967, reference compound]
IC50 (HLA-DP4): 3.05 µM

FQHLHRLTYLKLWYN [Peptide 80]
IC50 (HLA-DP4; [1]): 27.8 µM

GKGLVYAQYLPKEQY [Peptide 105]
IC50 (HLA-DP4; [1]): 47.9 µM

GLQTLYSAALYHLTT [Peptide 93]
IC50 (HLA-DP4; [1]): 21.6 µM

HLVAFGISCFLGSGL [Peptide 77]
Immunogenicity (in words) (CD4+ T-cells; 9 HLA-DP4-positive donors): most immunogenic | Immunogenicity, % of responses (CD4+ T-cells): 88% | Immunogenicity, No of responses (CD4+ T-cells): 8 of 9

HTCVKFYIEGFEPGK [Peptide 74]
Immunogenicity, % of responses (CD4+ T-cells): 11% | Immunogenicity, No of responses (CD4+ T-cells): one out of nine and 1 of 9

IGQVAAGAFANLRAL [Peptide 99]
IC50 (HLA-DP4; [1]): 27.9 µM

IVKGRFGEVWRGRWR [Peptide 103]
Immunogenicity, % of responses (CD4+ T-cells): 22% | Immunogenicity, No of responses (CD4+ T-cells): 2 of 9

IYSLRNTEFKSALRR [Peptide 83]
IC50 (HLA-DP4; [1]): 27.7 µM

KFESEKYQDILMWNY [Peptide 71]
IC50 (HLA-DP4; [1]): 28.9 µM

LKFWEDEGFVREEED [Peptide 100]
Immunogenicity, % of responses (CD4+ T-cells): 22% | Immunogenicity, No of responses (CD4+ T-cells): 2 of 9

LLKFWEDEGFVREEE [Peptide 98]
Immunogenicity, % of responses (CD4+ T-cells): 11% | Immunogenicity, No of responses (CD4+ T-cells): one out of nine and 1 of 9

MIYSLRNTEFKSALR [Peptide 84]
IC50 (HLA-DP4; [1]): 24.5 µM

PMIYSLRNTEFKSAL [Peptide 92]
IC50 (HLA-DP4; [1]): 6.36 µM

PRGKGLVYAQYLPKE [Peptide 104]
IC50 (HLA-DP4; [1]): 38.2 µM

QGKYKAFSTCAFHLS [Peptide 70]
IC50 (HLA-DP4; [1]): 31.5 µM

QHLHRLTYLKLWYNH [Peptide 82]
IC50 (HLA-DP4; [1]): 18.6 µM

QPEGPYRVAGYSYVA [Peptide 87]
IC50 (HLA-DP4; [1]): 31.9 µM

RNTGLQTLYSAALYH [Peptide 97]
IC50 (HLA-DP4; [1]): 22.6 µM

RNTIGQVAAGAFANL [Peptide 86]
IC50 (HLA-DP4; [1]): 37 µM

SFQHLHRLTYLKLWY [Peptide 78]
IC50 (HLA-DP4; [1]): 25.8 µM

SIDRTVMYYGLLFIQ [Peptide 88]
IC50 (HLA-DP4; [1]): 71 µM

TAFTFQSSKEKLDVG [Peptide 109]
Immunogenicity, % of responses (CD4+ T-cells): 11% | Immunogenicity, No of responses (CD4+ T-cells): one out of nine and 1 of 9

TDLHMLGAPVWAMLF [Peptide 96]
IC50 (HLA-DP4; [1]): 10.9 µM

TFRSPQKFGALIFLV [Peptide 91]
IC50 (HLA-DP4; [1]): 24.8 µM

TGLQTLYSAALYHLT [Peptide 102]
IC50 (HLA-DP4; [1]): 14.3 µM

YKAFSTCAFHLSVVS [Peptide 69]
Binding to HLA-DP4 in cell-based binding assay (in words) (HLA-DP4; Peptides with IC50 < 200 µM were considered binders): not to bind

B1: IFN-γ: human recombinant IFN-γ (#570206; BioLegend) (protein, UniProt P01579 24-161, looked up)
Interferon gamma: QDPYVKEAENLKKYFNAGHSDVADNGTLFLGILKNWKEESDRKIMQSQIVSFYFKLFKNFKDDQSIQKSVETIKEDMNVKFFNSNKKKRDDFEKLTNYSVTDLNVQRKAIHELIQVMAELSPAAKTGKRKRSQMLFRG
MHC class II surface expression (PDAC cell lines; 14 PDAC and circulating tumor cell lines, 50 ng/mL): upregulated in these cell lines and de novo expression was observed in six additional cell lines | MHC-II expression, agent alone (PDAC cell lines): induced low expression of MHC-II
